In US20230159453A1 (COCRYSTAL PHARMA, INC., priority 2020, published 2023):

Target: SARS2 protease (Severe acute respiratory syndrome coronavirus 2, UniProt P0DTD1)
Test: SARS-CoV-2 protease inhibition assay (SARS2 FRET protease assay)
Type: biochemical
Conditions: SARS-CoV-2 protease 25 nM, FRET, peptide substrate 1.3 μM, 30 minutes at 30° C., compounds 20 μM to 1.0 nM; read-out: IC50

SMILES	IC50 [µM]
CC(C)C[C@H](NC(=O)O[C@@H](c1cccc(F)c1)C(C)(C)c1cccc(Cl)c1)C(=O)N[C@@H](C[C@@H]1CCNC1=O)C(=O)C(=O)NC1CC1 [Compound C285]	0.08
CC1(C)CC(CC(NC(=O)[C@H](CC2CCCCC2)NC(=O)OC(Cc2cccc(Cl)c2)c2ccccc2)C(=O)C(N)=O)C(=O)N1 (stereo partly drawn) [Compound C217, 2-(3-Chlorophenyl)-1-phenylethyl ((2S)-1-((4-amino-1-(5,5-dimethyl-2-oxopyrrolidin-3-yl)-3,4-dioxobutan-2-yl)amino)-3-cyclohexyl-1-oxopropan-2-yl) carbamate]	3.99
CC(C)C[C@H](NC(=O)OC1CCCC1Cc1ccccc1)C(=O)N[C@H](C=O)C[C@@H]1CCNC1=O (stereo partly drawn) [Compound C43, 2-benzylcyclopentyl ((S)-4-methyl-1-oxo-1-(((S)-1-oxo-3-((S)-2-oxopyrrolidin-3-yl)propan-2-yl)amino)pentan-2-yl) carbamate]	0.056
CCOP(=O)(OCC)C(O)[C@H](CCC(=O)N1CCOc2ccccc2C1)NC(=O)[C@H](CC1CCCCC1)NC(=O)N1CCc2ccccc21 (stereo partly drawn) [Compound C21, Diethyl ((2S)-2-((S)-3-cyclohexyl-2-(indoline-1-carboxamido)propanamido)-5-(2,3-dihydrobenzo[f][1,4]oxazepin-4(5H)-yl)-1-hydroxy-5-oxopentyl)phosphonate]	> 200
COc1cccc(CC2(OC(=O)N[C@@H](CC(C)C)C(=O)N[C@@H](C[C@@H]3CCNC3=O)C(=O)C(N)=O)CC2)c1 [Compound C93, 1-(3-Methoxybenzyl) cyclopropyl ((S)-1-(((S)-4-amino-3,4-dioxo-1-((S)-2-oxopyrrolidin-3-yl)butan-2-yl)amino)-4-methyl-1-oxopentan-2-yl) carbamate]	> 20
CC(C)C[C@H](NC(=O)OC1CCCC1Cc1cccc(Cl)c1)C(=O)N[C@@H](C[C@@H]1CCNC1=O)C(=O)C(=O)NC1CC1 (stereo partly drawn) [Compound C196, 2-(3-Chlorobenzyl)cyclopentyl ((S)-1-(((S)-4-(cyclopropylamino)-3,4-dioxo-1-((S)-2-oxopyrrolidin-3-yl)butan-2-yl)amino)-4-methyl-1-oxopentan-2-yl)carbamate]	0.108
CC(C)C[C@H](NC(=O)OCC(C)(C)c1cccc(Cl)c1)C(=O)NC(C)(C=O)CC1CCNC1=O (stereo partly drawn) [Compound C83, 2-(3-Chlorophenyl)-2-methylpropyl ((2S)-4-methyl-1-((2-methyl-1-oxo-3-(2-oxopyrrolidin-3-yl)propan-2-yl)amino)-1-oxopentan-2-yl) carbamate]	1.3
CC(C)C[C@H](NC(=O)OC(c1cccc(Cl)c1)C1(c2cccc(Cl)c2)CC1)C(=O)N[C@@H](C[C@@H]1CCNC1=O)C(=O)C(=O)NC1CC1 (stereo partly drawn) [Compound C187, (3-chlorophenyl)(1-(3-chlorophenyl)cyclopropyl)methyl ((S)-1-(((S)-4-(cyclopropylamino)-3,4-dioxo-1-((S)-2-oxopyrrolidin-3-yl)butan-2-yl)amino)-4-methyl-1-oxopentan-2-yl)carbamate]	0.109
CC(C)(c1cccc(Cl)c1)C(OC(=O)N[C@@H](CC1CCCCC1)C(=O)N[C@@H](C[C@@H]1CCNC1=O)C(=O)C(=O)O)c1ccc2ccccc2c1 (stereo partly drawn) [Compound C235, (3S)-3-((2S)-2-(((2-(3-Chlorophenyl)-2-methyl-1-(naphthalen-2-yl)propoxy)carbonyl)amino)-3-cyclohexylpropanamido)-2-oxo-4-((S)-2-oxopyrrolidin-3-yl)butanoic acid]	0.071
CCOP(=O)(OCC)C(O)[C@H](CC1CCN(CCc2ccccc2)C1=O)NC(=O)[C@H](CC1CCCCC1)NC(=O)OCc1cccc(Cl)c1 (stereo partly drawn) [Compound C8, 3-Chlorobenzyl ((2S)-3-cyclohexyl-1-((1-(diethoxyphosphaneyl)-1-hydroxy-3-(2-oxo-1-phenethylpyrrolidin-3-yl)propan-2-yl)amino)-1-oxopropan-2-yl) carbamate]	> 200
CC(C)C[C@H](NC(=O)OC(c1ccccc1)C(C)(C)c1cccc(Cl)c1)C(=O)N[C@@H](C[C@@H]1CCNC1=O)C(=O)C(=O)N1CCN(C)CC1 (stereo partly shown) [Compound C248]	6.93
CC(C)C[C@H](NC(=O)OC1(Cc2cccc(Cl)c2)CCC1)C(=O)NC(C=O)CC1CC2(CCOCC2)NC1=O (stereo partly shown) [Compound C204]	0.224
CC(C)C[C@H](NC(=O)OC1(Cc2cccnc2)CC1)C(=O)N[C@H](C=O)C[C@@H]1CCNC1=O [Compound C71, 1-(Pyridin-3-ylmethyl)cyclopropyl ((S)-4-methyl-1-oxo-1-(((S)-1-oxo-3-((S)-2-oxopyrrolidin-3-yl)propan-2-yl)amino)pentan-2-yl)carbamate]	1.6
CC1(C)CC(CC(NC(=O)[C@H](CC2CCCCC2)NC(=O)OC(c2ccc(Cl)cc2)C(C)(C)c2cccc(Cl)c2)C(=O)C(=O)NC2CC2)C(=O)N1 (stereo partly shown) [Compound C245]	1.98
CC(C)C[C@H](NC(=O)OC(c1ccc(Cl)cc1)C(C)(C)c1cccc(Cl)c1)C(=O)N[C@H](C=O)C[C@@H]1CCNC1=O (stereo partly shown) [Compound C246]	0.52
O=C(N[C@@H](CC1CCCCC1)C(=O)N[C@@H](C[C@H]1CC2(CCCCC2)NC1=O)C(=O)C(=O)NC1CC1)OCc1cccc(Cl)c1 [Compound C149, 3-Chlorobenzyl ((S)-3-cyclohexyl-1-(((S)-4-(cyclopropylamino)-3,4-dioxo-1-((S)-2-oxo-1-azaspiro[4.5]decan-3-yl)butan-2-yl)amino)-1-oxopropan-2-yl)carbamate]	3.97
CC(C)C[C@H](NC(=O)OC(Cc1ccccc1)C1CCCCC1)C(=O)N[C@H](C=O)C[C@@H]1CCNC1=O (stereo partly drawn) [Compound C237, 1-Cyclohexyl-2-phenylethyl ((S)-4-methyl-1-oxo-1-(((S)-1-oxo-3-((S)-2-oxopyrrolidin-3-yl)propan-2-yl)amino)pentan-2-yl)carbamate]	0.003
CN(C(=O)CC[C@@H](C=O)NC(=O)[C@H](CC1CCCCC1)NC(=O)OCc1cccc(Cl)c1)C1(Cc2ccccc2)CC1 [Compound C17, 3-Chlorobenzyl ((S)-1-(((S)-5-((1-benzylcyclopropyl)(methyl)amino)-1,5-dioxopentan-2-yl)amino)-3-cyclohexyl-1-oxopropan-2-yl)carbamate]	2.7
CC(C)(C)C(=O)N1CCC2(CC1)CC(CC(C=O)NC(=O)[C@H](CC1CCCCC1)NC(=O)OC1CCCC1Cc1cccc(Cl)c1)C(=O)N2 (stereo partly drawn) [Compound C202, 2-(3-Chlorobenzyl) cyclopentyl ((2S)-3-cyclohexyl-1-oxo-1-((1-oxo-3-(2-oxo-8-pivaloyl-1,8-diazaspiro[4.5]decan-3-yl)propan-2-yl)amino)propan-2-yl)carbamate]	0.644
O=C(N[C@@H](CC1CCCCC1)C(=O)NC(CC1CC2(CCC2)NC1=O)C(=O)C(=O)NC1CC1)OCc1cccc(Cl)c1 (stereo partly drawn) [Compound C290, 3-Chlorobenzyl ((2S)-3-cyclohexyl-1-((4-(cyclopropylamino)-3,4-dioxo-1-(6-oxo-5-azaspiro[3.4]octan-7-yl)butan-2-yl)amino)-1-oxopropan-2-yl)carbamate]	0.508
CC(C)C[C@H](NC(=O)OC(c1ccccc1)C(F)(F)c1cccc(Cl)c1)C(=O)N[C@@H](C[C@@H]1CCNC1=O)C(=O)C(=O)NC1CC1 (stereo partly shown) [Compound C258]	0.09
O=C(N[C@@H](CC1CCCCC1)C(=O)NC(CC1CC2(CCCCC2)NC1=O)C(=O)C(=O)NC1CC1)OC1CCCC1Cc1cccc(Cl)c1 (stereo partly drawn) [Compound C192, 2-(3-Chlorobenzyl)cyclopentyl ((2S)-3-cyclohexyl-1-((4-(cyclopropylamino)-3,4-dioxo-1-(2-oxo-1-azaspiro[4.5]decan-3-yl)butan-2-yl)amino)-1-oxopropan-2-yl)carbamate]	0.617
O=CC(CC1CC2(CCCCC2)NC1=O)NC(=O)[C@H](CC1CCCCC1)NC(=O)OC1CCCC1Cc1cccc(Cl)c1 (stereo partly drawn) [Compound C223, 2-(3-Chlorobenzyl)cyclopentyl ((2S)-3-cyclohexyl-1-oxo-1-((1-oxo-3-(2-oxo-1-azaspiro[4.5]decan-3-yl)propan-2-yl)amino)propan-2-yl)carbamate]	0.781
CC(C)(COC(=O)N[C@H](C(=O)N[C@H](C=O)C[C@@H]1CCNC1=O)C(C)(C)C)c1cccc(Cl)c1 [Compound C103, 2-(3-Chlorophenyl)-2-methylpropyl ((S)-3,3-dimethyl-1-oxo-1-(((S)-1-oxo-3-((S)-2-oxopyrrolidin-3-yl)propan-2-yl)amino)butan-2-yl)carbamate]	0.736
CC1(C)CC(CC(NC(=O)[C@H](CC2CCCCC2)NC(=O)c2cc3ccccc3[nH]2)C(=O)C(N)=O)C(=O)N1 (stereo partly drawn) [Compound C123, N-((2S)-1-((4-amino-1-(5,5-dimethyl-2-oxopyrrolidin-3-yl)-3,4-dioxobutan-2-yl)amino)-3-cyclohexyl-1-oxopropan-2-yl)-1H-indole-2-carboxamide]	0.294
CC1(C)CC(CC(C=O)NC(=O)[C@H](CC2CCCCC2)NC(=O)OC(c2cccc(F)c2)C(C)(C)c2cccc(Cl)c2)C(=O)N1 (stereo partly drawn) [Compound C222, 2-(3-Chlorophenyl)-1-(3-fluorophenyl)-2-methylpropyl ((2S)-3-cyclohexyl-1-((1-(5,5-dimethyl-2-oxopyrrolidin-3-yl)-3-oxopropan-2-yl)amino)-1-oxopropan-2-yl)carbamate]	0.235
CCOP(=O)(OCC)C(O)[C@H](CC(C)C(=O)N1CCOc2ccccc2C1)NC(=O)[C@H](CC1CCCCC1)NC(=O)OCc1cccc(Cl)c1 (stereo partly drawn) [Compound C11, 3-chlorobenzyl ((2S)-3-cyclohexyl-1-(((2S)-1-(diethoxyphosphoryl)-5-(2,3-dihydrobenzo[f][1,4]oxazepin-4(5H)-yl)-1-hydroxy-4-methyl-5-oxopentan-2-yl)amino)-1-oxopropan-2-yl)carbamate]	> 200
CC(C)C[C@H](NC(=O)OC(Cc1cccc(Cl)c1)c1cccc(Cl)c1)C(=O)N[C@H](C=O)C[C@@H]1CCNC1=O (stereo partly drawn) [Compound C282, 1,2-Bis(3-chlorophenyl)ethyl ((S)-4-methyl-1-oxo-1-(((S)-1-oxo-3-((S)-2-oxopyrrolidin-3-yl)propan-2-yl)amino)pentan-2-yl)carbamate]	0.04
